pIC50: −log10 of the molar value.

Broadly, the pIC50 is the IC50 on a negative log10 scale, so that one unit is a factor of ten.

This assay deals with T1, human CYP11B2 (Homo sapiens, UniProt P19099).
T1 construct: expressed in transfected cells; mitochondrial fraction
T1 sequence (P19099 25-503): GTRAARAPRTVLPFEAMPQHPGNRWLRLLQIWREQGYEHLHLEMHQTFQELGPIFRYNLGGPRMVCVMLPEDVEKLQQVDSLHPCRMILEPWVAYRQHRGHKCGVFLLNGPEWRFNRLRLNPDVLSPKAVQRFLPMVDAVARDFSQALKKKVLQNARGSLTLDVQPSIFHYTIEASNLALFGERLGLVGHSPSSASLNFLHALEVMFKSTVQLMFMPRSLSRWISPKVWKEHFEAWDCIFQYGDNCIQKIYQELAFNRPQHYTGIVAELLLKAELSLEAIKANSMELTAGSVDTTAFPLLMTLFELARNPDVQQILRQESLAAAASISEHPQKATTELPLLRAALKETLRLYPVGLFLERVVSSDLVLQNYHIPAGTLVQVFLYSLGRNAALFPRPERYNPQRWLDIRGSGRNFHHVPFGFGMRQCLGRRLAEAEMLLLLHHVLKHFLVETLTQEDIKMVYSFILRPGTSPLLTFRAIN
The experiment in a line: Inhibitory effect on hCYP11B2: aldosterone production in mitochondrial fraction of V79 cells stably expressing human CYP11B2, HTRF. In kind it is biochemical. Particulars: 0.5 μmol/L deoxycorticosterone, 150 μmol/L NADPH, 1.5-2 hours at room temperature. The protocol:
Experimental Example 1 (Inhibitory Effect on hCYP11B2)
The pcDNA3.1-human CYP11B2 plasmid was transfected into a Chinese hamster lung fibroblast V79 cell line to produce a cell line stably expressing human CYP11B2 gene.
The cells were cultured and grown in the Dulbecco's modified Eagle's/Ham's medium supplemented with 10% fetal bovine serum and 1% G418 disulfate solution under the environment of 37° C., 95% air, and 5% CO2, and the grown cells were harvested.
Then, the cells were fractionated to obtain mitochondria by reference to a method described in Chabre et al. JCE & M 85 (11) 4060-68, 2000. In particular, the cells suspended in a 5 mmol/L Tris-HCl buffer (pH 7.4) containing 250 mmol/L sucrose were homogenized in a Teflon (Registered Trademark) Potter Elvehjem homogenizer, and then the suspension was centrifuged (800×g, 15 min.). The supernatant was separated and again centrifuged (10000×g, 15 min.) to obtain a pellet (mitochondrial fraction).
The mitochondrial fraction diluted with a buffer containing 10 mmol/L KH2PO4, 10 mmol/L Tris, 20 mmol/L KCl, 25 mmol/L sucrose, 5 mmol/L MgCl2, and 0.05% bovine serum albumin was dispensed to a 96-well plate. 0.5 μmol/L Deoxycorticosterone, 150 μmol/L NADPH and a compound of each concentration were added to each well, and incubated for 1.5-2 hours at room temperature to produce aldosterone. An amount of the produced aldosterone in the incubated solution was determined by using HTRF (Homogeneous Time Resolved Fluorescence) method.
IC50 (nmol/L) was calculated by analyzing the aldosterone production inhibition rate (%) of each concentration of compounds by non-linear regression to a logistic curve.
(In TR-FRET formats the signal depends on donor and acceptor labels being close together.)
`O=C(CN1CCN(c2cc(-c3ccc(F)cc3)cnn2)CC1)N[C@@H]1CCNC[C@H]1F` (single isomer, unassigned) [Example 89a]: the pIC50 is 8.13.
Consider `O=C(CN1CCN(c2cc(-c3ccc(Cl)cc3)cnn2)CC1)NC1CCNCC1O` (single isomer, unassigned) [Example 90a], for which the negative logarithm of the IC50 (pIC50) was 7.48.
With `O=C(CN1CCN(c2cc(-c3ccc(Cl)cc3)cnn2)CC1)NC1CCNCC1O` (single isomer, unassigned) [Example 90b] the figure was 7.12; with `CN1CCC(NC(=O)CN2CCN(c3cc(-c4ccc(Cl)cc4)cnn3)CC2)CC1=O` (single isomer, unassigned) [Example 91a], 7.52.
The figure for `CN1CCC(NC(=O)CN2CCN(c3cc(-c4ccc(Cl)cc4)cnn3)CC2)CC1=O` (single isomer, unassigned) [Example 91b] is 7.92; for `O=C(CN1CCN(c2cncc(-c3ccc(F)cc3)c2)CC1)NC1CCn2ccnc2C1` (stereo not drawn) [Example 1] it is 8.18.
With `CC(C)(C)OC(=O)N1C2COCC1CC(NC(=O)CN1CCN(c3cncc(-c4ccc(F)cc4)c3)CC1)C2` (stereo not drawn) [Example 5] the figure was 7.85; with `CN(C)[C@H]1CC[C@@H](NC(=O)CN2CCN(c3cncc(-c4ccc(F)cc4)c3)CC2)CC1` [Example 6], 7.89.
`Cc1ccccc1-c1cncc(N2CCN(CC(=O)Nc3cnn(C)c3)CC2)c1` [Example 7] had a pIC50 of 8.32.
With `Cc1ccccc1-c1cncc(N2CCN(CC(=O)N[C@H](CO)C(C)C)CC2)c1` [Example 8] the figure was 8.31.
With `Cc1ccc(-c2cncc(N3CCN(CC(=O)NC4CC5COCC(C4)C5O)CC3)c2)cc1` (stereo not drawn) [Example 10] the figure was 8.04; with `CC(C)NC(=O)CN1CCN(c2cncc(-c3ccc(C#N)nc3)c2)CC1` [Example 11], 7.74.
With `CC(C)NC(=O)CN1CCN(c2cncc(-c3ccc4c(c3)CCO4)c2)CC1` [Example 13] the figure was 7.96; with `CC(C)NC(=O)CN1CCN(c2cncc(-c3ccc4cn[nH]c4c3)c2)CC1` [Example 14], 7.52; with `CC(C)NC(=O)CN1CCN(c2cncc(-c3ccc4cnn(C)c4c3)c2)CC1` [Example 15], 7.74.
`CC1CC=C(c2cncc(N3CCN(CC(=O)NC(C)C)CC3)c2)CC1` (stereo not drawn) [Example 16] had a pIC50 of 8.16. Compared with the last molecule, the pIC50 is 0.42 log units higher.
With `CC1CCC(c2cncc(N3CCN(CC(=O)NC(C)C)CC3)c2)CC1` (stereo not drawn) [Example 17] the figure was 7.77; with `C[C@H](O)CNC(=O)CN1CCN(c2cncc(-c3ccc4cnn(C)c4c3)n2)CC1` [Example 18], 7.85.
`CO[C@H]1CC[C@@H](NC(=O)CN2CCN(c3cncc(-c4ccc(C)cc4)n3)CC2)CC1` [Example 20]: the pIC50 was 8.35.
The figure for `Cc1ccc(-c2cncc(N3CCN(CC(=O)NCC4(O)CCN(C)CC4)CC3)n2)cc1` [Example 21] is 7.55; for `Cn1ncc2ccc(-c3cncc(N4CCN(CC(=O)N[C@H]5CC[C@@H](CO)CC5)CC4)n3)cc21` [Example 22] it is 7.72; for `CO[C@H]1CC[C@@H](NC(=O)CN2CCN(c3cncc(-c4ccc5cnn(C)c5c4)n3)CC2)CC1` [Example 26] it is 7.85.
The figure for `CN1CCC(NC(=O)CN2CCN(c3cncc(-c4ccc5cnn(C)c5c4)n3)CC2)CC1` [Example 27] is 7.38.
The figure for `CO[C@H]1CC[C@@H](NC(=O)CN2CCN(c3cncc(-c4ccc5c(cnn5C)c4)n3)CC2)CC1` [Example 28] is 8.00; for `Cn1ncc2cc(-c3cncc(N4CCN(CC(=O)N[C@H]5CC[C@@H](N(C)C)CC5)CC4)n3)ccc21` [Example 29] it is 7.43; for `Cn1ncc2cc(-c3cncc(N4CCN(CC(=O)N[C@H]5CC[C@@H](C(C)(C)O)CC5)CC4)n3)ccc21` [Example 30] it is 7.89.
`CN(C)[C@H]1CC[C@H](NC(=O)CN2CCN(c3cncc(-c4ccc(F)cc4)n3)CC2)CC1` [Example 31] showed a pIC50 of 8.29.

Source of the values: patent US10717731B2, “Nitrogen-containing aromatic heterocyclic compound” (MITSUBISHI TANABE PHARMA CORPORATION, priority 2015, dated 2020).
